Experimental findings from ChEMBL document CHEMBL4680367, “Targeting Stimulator of Interferon Genes (STING) for the Potential Treatment of Cancer and Infectious Diseases” (ACS Med Chem Lett, 2021) are described below.

Structures are written as SMILES.

This test addresses Stimulator of interferon genes protein (Homo sapiens, UniProt Q86WV6). The test can be described thus: Agonist activity at full length human STING expressed in HEK293T cotransfected with pISRE-luc and cGAS incubated for 24 hrs by steady-glo luciferase reporter gene assay. The test is classed as cell-based. Background: In a reporter assay the amount or activity of a reporter protein is the signal.

Sequence of Stimulator of interferon genes protein (Q86WV6 whole entry): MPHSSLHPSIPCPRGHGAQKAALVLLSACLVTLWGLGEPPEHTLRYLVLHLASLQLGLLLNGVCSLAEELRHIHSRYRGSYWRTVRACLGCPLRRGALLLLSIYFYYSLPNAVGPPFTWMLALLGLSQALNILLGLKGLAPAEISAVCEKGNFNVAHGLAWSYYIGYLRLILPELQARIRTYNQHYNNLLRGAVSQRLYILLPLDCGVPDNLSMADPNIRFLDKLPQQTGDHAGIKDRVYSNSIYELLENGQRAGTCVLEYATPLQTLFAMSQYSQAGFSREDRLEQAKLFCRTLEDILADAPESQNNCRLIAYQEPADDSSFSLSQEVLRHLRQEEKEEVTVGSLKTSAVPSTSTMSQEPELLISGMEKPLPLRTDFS

The term EC50 denotes the concentration needed to bring the measured effect to its halfway point. A low value points to a more potent agent. The compound `CCCn1c(NC(=O)c2cc(C)nn2CC)nc2cc(C(N)=O)cc(OCN3CCOCC3)c21` showed an EC50 of 1000 nM.
